This data set concerns pronase. In words: Proteolytic degradation assay with pronase (RP-HPLC, MALDI-TOF-MS). The data set is classed as in vitro ADME. The settings on record: Streptomyces griseus, pronase (isolated proteolytic enzyme) in DPBS; pronase 0.35 U/mL in DPBS, 37° C., 50 μM peptide, after 3 hours; read-out: peptide cleavage. How it is done:
The stability of drug delivery systems serves as a basis for enhancing half-life of therapeutic cargos during the course of delivery to targeted areas. To evaluate the stability of peptide brush polymers, positively charged poly(GGSGSGK) and its single peptide analogue GGSGSGK were treated with pronase, a robust proteolytic enzyme isolated from the extracellular fluid of Streptomyces griseus. RP-HPLC and MALDI-TOF mass spectroscopy were used to quantify the cleavage of peptides (FIGS. 30-33). As expected, the peptide underwent rapid degradation in the presence of pronase, resulting in approximately 75% peptide cleavage after 3 hours.
Monomer Nor-GGSGSGK and polymer Poly(GGSGSGK) (50 μM, with respect to peptide concentration) were treated with pronase (0.35 U/mL) in DPBS at 37° C. After treatment, the enzyme was heat denatured at 65° C. for 15 min.

Peptide text beside a SMILES is read from it. * marks the point of attachment. X1 = O=C1C2C3C=CC(C3)C2C(=O)N1CC(=O)*

Regarding `NCCCC[C@H](NC(=O)CNC(=O)[C@H](CO)NC(=O)CNC(=O)[C@H](CO)NC(=O)CNC(=O)CN1C(=O)C2C3C=CC(C3)C2C1=O)C(N)=O` (stereo partly shown) [GGSGSGK] (X1-GSGSGK-NH2; N-terminus assumed), the metabolised at 3 h, 50 μM was roughly 75%.

Values taken from patent US12678510B2, “Drug loaded peptide brush polymers” (priority 2020, dated 2026).
